Assay results: patent US20260000697A1, “COMBINATION FORMULATION OF CEDAZURIDINE” (Otsuka Pharmaceutical Co., Ltd., priority 2022, published 2026)
Several values for one entry are separate records, joined by “and”; a condition that tells them apart may be missing. Equal entries are not always repeated. Where two headings read alike, the source gives them in different places.

Experiments:
clinical = test: clinical
Procedure: Blood samples were collected pre-dose, and 0.5, 1, 1.5, 2, 2.5, 3, 3.5, 4, 5, 7, 9 and 24 hours after dosing.

[1] = for release at buffer stage from enteric capsule: 50 mM phosphate buffer pH 6.8; for release at buffer stage from enteric capsule / release in acid stage from enteric capsule: Capsule 1 and Capsule 2; for release in acid stage from enteric capsule: 0.1 N HCl, 2 hours
[2] = test system: fetal hemoglobin levels (Hb F); settings: orally administered (8 mg/kg), repeatedly phlebotomized baboon (PCV less than 20%); cited from earlier work
[3] = 80 mg oral dose, 3 subjects, one value per subject, post-dose; cited from earlier work
[4] = human, blood, subcutaneous, 60 mg

Compound	AUC(0-t) (clinical; [4]) [ng·h/mL]	Cmax (clinical; [4]) [ng/mL]	Tmax (clinical; [4]) [min]	release at buffer stage from enteric capsule [1]	release in acid stage from enteric capsule [1]	stability in dissolution medium ([1]; pH 6.8)	effect of co-administration on azacitidine PK (clinical; 60 mg oral delayed release azacitidine with vs without 60 mg cedazuridine)	elevation in fetal hemoglobin levels (Hb F) [2]	Tmax [3]
Nc1ncn([C@@H]2O[C@H](CO)[C@@H](O)[C@H]2O)c(=O)n1 [Group 1 (azacitidine, SQ), azacitidine]	761	384	36	–	–	–	–	–	–
O=C1N[C@H](O)CCN1[C@@H]1O[C@H](CO)[C@@H](O)C1(F)F [cedazuridine]	–	–	–	rapidly released	slowly released	degradation is minimal	increased Tmax, Cmax and AUC for azacitidine	–	–
Nc1ncn([C@@H]2O[C@H](CO)C(O)[C@@H]2O)c(=O)n1 (some centres unmarked) [azacitidine]	–	–	–	rapidly released	slowly released	–	–	no elevation	1.5 h and 2.0 h and 1.0 h
